The values that follow come from patent US12454529B2, “Piperazine cyclic ureas” (SIRONAX LTD., priority 2020, dated 2025).

As a reminder, the EC50 is the concentration at which the effect is half-maximal.

For one experiment, the system named is HT-29 cells. The experiment can be described thus: HT-29 cell necrosis/necroptosis inhibition (TNF-α + SMAC mimetic + zVAD-FMK; CellTiter-Glo cell viability). The settings on record: Homo sapiens; HT-29 cells, TNF-α 10 ng/ml + SMAC mimetic 6 μM + zVAD-FMK 10 μM, 20 hours; geometric mean, 10 points in duplicate; read-out: EC50 (Cell activity; Necrosis/Necroptosis Inhibitory Activity, Compounds 1-142). The format is cell-based. In short, it runs like this: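 HT-29 cells (~5,000/well) were switched to FBS-free McCOY's 5A holding TNF-α (10 ng/ml), SMAC mimetic (6 μM) and zVAD-FMK (10 μM), then dosed with a 10-point 1:3 series for 20 h at 37 °C. CellTiter-Glo luminescence gave viability; geometric mean EC50 from duplicates.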
(In general: ATP-based viability assays read luminescence as a measure of living cells.)
For the compound `NC(=O)Cn1ccc(-c2nc(N3CCN(C(=O)N4N=CC[C@H]4c4cc(F)cc(F)c4)CC3)ncc2F)n1` [Compound 29, (S)-2-(3-(2-(4-(5-(3,5-difluorophenyl)-4,5-dihydro-1H-pyrazole-1-carbonyl)piperazin-1-yl)-5-fluoropyrimidin-4-yl)-1H-pyrazol-1-yl)acetamide], the EC50 lay within 0.1 to 100 nM.

Turning to `Cc1ncc(-c2nc(N3CCN(C(=O)N4N=CC[C@H]4c4cc(F)cc(F)c4)CC3)ncc2F)s1` [Compound 56, (S)-(5-(3,5-difluorophenyl)-4,5-dihydro-1H-pyrazol-1-yl)(4-(5-fluoro-4-(2-methylthiazol-5-yl)pyrimidin-2-yl)piperazin-1-yl)methanone], the EC50 lay in the range of 0.1 to 100 nM.

Consider `Cn1nccc1-c1nc(N2CCN(C(=O)N3N=CC[C@H]3c3cc(F)cc(C#N)c3)CC2)ncc1F` [Compound 69, (S)-3-fluoro-5-(1-(4-(5-fluoro-4-(1-methyl-1H-pyrazol-5-yl)pyrimidin-2-yl)piperazine-1-carbonyl)-4,5-dihydro-1H-pyrazol-5-yl)benzonitrile], for which the EC50 is 0.1 to 100 nM.

As for `Cc1nn(CC(N)=O)c(C)c1-c1nc(N2CCN(C(=O)N3N=CC[C@H]3c3cc(F)cc(C#N)c3)CC2)ncc1F` [Compound 123, (S)-2-(4-(2-(4-(5-(3-cyano-5-fluorophenyl)-4,5-dihydro-1H-pyrazole-1-carbonyl)piperazin-1-yl)-5-fluoropyrimidin-4-yl)-3,5-dimethyl-1H-pyrazol-1-yl)acetamide], the EC50 lay in the range of 0.1 to 100 nM.

As to `COc1cc(-c2nc(N3CCN(C(=O)N4N=CC[C@H]4c4cc(F)cc(F)c4)CC3)ncc2F)nc(OC)n1` [Compound 19, (S)-(5-(3,5-difluorophenyl)-4,5-dihydro-1H-pyrazol-1-yl)(4-(5-fluoro-2′,6′-dimethoxy-[4,4′-bipyrimidin]-2-yl)piperazin-1-yl)methanone], the EC50 lay in the range of 0.1 to 100 nM.

As for `N#Cc1cc(F)cc([C@@H]2CC=NN2C(=O)N2CCN(c3ncc(F)c(-c4ncc[nH]4)n3)CC2)c1` [Compound 112, (S)-3-fluoro-5-(1-(4-(5-fluoro-4-(1H-imidazol-2-yl)pyrimidin-2-yl)piperazine-1-carbonyl)-4,5-dihydro-1H-pyrazol-5-yl)benzonitrile], the concentration for a half-maximal effect (EC50) lay in the range of 0.1 to 100 nM.

For the compound `Cn1c(-c2nc(N3CCN(C(=O)N4N=CC[C@H]4c4cc(F)cc(C#N)c4)CC3)ncc2F)cc(=O)n(C)c1=O` [Compound 51, (S)-3-fluoro-5-(1-(4-(5-fluoro-1′,3′-dimethyl-2′,6′-dioxo-1′,2′,3′,6′-tetrahydro-[4,4′-bipyrimidin]-2-yl)piperazine-1-carbonyl)-4,5-dihydro-1H-pyrazol-5-yl)benzonitrile], the EC50 lay within 0.1 to 100 nM.

As for `Cc1nc(C)n(-c2ncnc(N3CCN(C(=O)N4N=CC[C@H]4c4cc(F)cc(C#N)c4)CC3)n2)n1` [Compound 130, (S)-3-(1-(4-(4-(3,5-dimethyl-1H-1,2,4-triazol-1-yl)-1,3,5-triazin-2-yl)piperazine-1-carbonyl)-4,5-dihydro-1H-pyrazol-5-yl)-5-fluorobenzonitrile], the EC50 fell in the range of 0.1 to 100 nM.

The experiment is the same for the next values; noted with them: Homo sapiens; HT-29 cells, TNF-α 10 ng/ml + SMAC mimetic 6 μM + zVAD-FMK 10 μM, 20 hours; geometric mean, 10 points in duplicate; read-out: EC50 (Cell activity; Necrosis/Necroptosis Inhibitory Activity, Compounds 143-323).
Take `Cn1ncnc1-c1ccc(F)c(N2CCN(C(=O)N3N=CCC3c3ncccc3Cl)CC2)n1` (stereo not shown) [Compound 222, (5-(3-chloropyridin-2-yl)-4,5-dihydro-1H-pyrazol-1-yl)(4-(3-fluoro-6-(1-methyl-1H-1,2,4-triazol-5-yl)pyridin-2-yl)piperazin-1-yl)methanone]: the EC50 lay within 0.1 to 100 nM.

Take `Cc1[nH]nc(CO)c1-c1nc(N2CCN(C(=O)N3N=CC[C@H]3c3cc(F)cc(C#N)c3)CC2)ncc1F` [Compound 163, (S)-3-fluoro-5-(1-(4-(5-fluoro-4-(3-(hydroxymethyl)-5-methyl-1H-pyrazol-4-yl)pyrimidin-2-yl)piperazine-1-carbonyl)-4,5-dihydro-1H-pyrazol-5-yl)benzonitrile]: the EC50 fell in the range of 0.1 to 100 nM.

Turning to `O=C(N1CCN(c2ncc(F)c(-n3cnc(C(F)(F)F)n3)n2)CC1)N1N=CC[C@H]1c1cc(F)cc(F)c1` [Compound 305, (S)-(5-(3,5-difluorophenyl)-4,5-dihydro-1H-pyrazol-1-yl)(4-(5-fluoro-4-(3-(trifluoromethyl)-1H-1,2,4-triazol-1-yl)pyrimidin-2-yl)piperazin-1-yl)methanone], the EC50 was 0.1 to 100 nM.

As to `Cc1nc(C2CC=NN2C(=O)N2CCN(c3nc(-c4c(C)cnn4C)ncc3F)CC2)cs1` (stereo not shown) [Compound 158, (4-(2-(1,4-dimethyl-1H-pyrazol-5-yl)-5-fluoropyrimidin-4-yl)piperazinyl)(5-(2-methylthiazol-4-yl)-4,5-dihydro-1H-pyrazol-1-yl)methanone], the half-maximal effective concentration (EC50) was in the range of 0.1 to 100 nM.

Turning to `Cc1cnn(C)c1-c1cc(N2CCN(C(=O)N3N=CCC3c3cncs3)CC2)c(F)cn1` (stereo not shown) [Compound 293, (4-(2-(1,4-dimethyl-1H-pyrazol-5-yl)-5-fluoropyridin-4-yl)piperazin-1-yl)(5-(thiazol-5-yl)-4,5-dihydro-1H-pyrazol-1-yl)methanone], the EC50 was 0.1 to 100 nM.

For `Cn1nc(C(N)=O)nc1-c1nc(N2CCN(C(=O)N3N=CCC3c3cncc(F)c3)CC2)ncc1F` (stereo not shown) [Compound 226, 5-(5-fluoro-2-(4-(5-(5-fluoropyridin-3-yl)-4,5-dihydro-1H-pyrazole-1-carbonyl)piperazin-1-yl)pyrimidin-4-yl)-1-methyl-1H-1,2,4-triazole-3-carboxamide], the EC50 was in the range of 0.1 to 100 nM.

Consider `Cc1nn(-c2nc(N3CCN(C(=O)N4N=CC[C@H]4c4cc(F)cc(C#N)c4)CC3)ncc2F)c(C)c1S(C)(=O)=O` [Compound 204, (S)-3-(1-(4-(4-(3,5-dimethyl-4-(methylsulfonyl)-1H-pyrazol-1-yl)-5-fluoropyrimidinyl)piperazine-1-carbonyl)-4,5-dihydro-1H-pyrazol-5-yl)-5-fluorobenzonitrile], for which the concentration for a half-maximal effect (EC50) fell in the range of 0.1 to 100 nM.

For the compound `Cc1nc(C)n(-c2nc(N3CCN(C(=O)N4N=CCC4c4nccs4)CC3)ncc2F)n1` (stereo not shown) [Compound 217, (4-(4-(3,5-dimethyl-1H-1,2,4-triazol-1-yl)-5-fluoropyrimidin-2-yl)piperazin-1-yl)(5-(thiazol-2-yl)-4,5-dihydro-1H-pyrazol-1-yl)methanone], the concentration for a half-maximal effect (EC50) fell in the range of 0.1 to 100 nM.

Turning to `O=C(N1CCN(c2ncc(F)c(-n3nccc3C(F)(F)F)n2)CC1)N1N=CC[C@H]1c1ccccc1` [Compound 307, (S)-(4-(5-fluoro-4-(5-(trifluoromethyl)-1H-pyrazol-1-yl)pyrimidin-2-yl)piperazin-1-yl)(5-phenyl-4,5-dihydro-1H-pyrazol-1-yl)methanone], the EC50 was in the range of 0.1 to 100 nM.

Turning to `Cc1nn(-c2cc(N3CCN(C(=O)N4N=CC[C@H]4c4cc(F)cc(C#N)c4)CC3)ncn2)c(C)c1Br` [Compound 278, (S)-3-(1-(4-(6-(4-bromo-3,5-dimethyl-1H-pyrazol-1-yl)pyrimidin-4-yl)piperazine-1-carbonyl)-4,5-dihydro-1H-pyrazol-5-yl)-5-fluorobenzonitrile], the EC50 was 0.1 to 100 nM.

For the compound `Cc1nc(C)n(-c2nc(N3CCN(C(=O)N4N=CC[C@@H]4c4cc(F)cc(F)c4F)CC3)ncc2F)n1` [Compound 265, (R)-(4-(4-(3,5-dimethyl-1H-1,2,4-triazol-1-yl)-5-fluoropyrimidin-2-yl)piperazin-1-yl)(5-(2,3,5-trifluorophenyl)-4,5-dihydro-1H-pyrazol-1-yl)methanone], the half-maximal effective concentration (EC50) lay in the range of 100 to 1000 nM.

With `Cc1nn(-c2nc(N3CCN(C(=O)N4N=CC[C@H]4c4cc(F)cc(C#N)c4)CC3)ncc2F)c(C)c1C(N)=O` [Compound 277, (S)-1-(2-(4-(5-(3-cyano-5-fluorophenyl)-4,5-dihydro-1H-pyrazole-1-carbonyl)piperazin-1-yl)-5-fluoropyrimidin-4-yl)-3,5-dimethyl-1H-pyrazole carboxamide], the EC50 was 0.1 to 100 nM.

Consider `Cc1nc(C)n(-c2ncc(F)c(N3CCN(C(=O)N4N=CC[C@H]4c4cc(F)cc(F)c4)CC3)n2)n1` [Compound 257, (S)-(5-(3,5-difluorophenyl)-4,5-dihydro-1H-pyrazol-1-yl)(4-(2-(3,5-dimethyl-1H-1,2,4-triazol-1-yl)-5-fluoropyrimidin-4-yl)piperazin-1-yl)methanone], for which the EC50 was 0.1 to 100 nM.

For `CCn1cnn(-c2nc(N3CCN(C(=O)N4N=CC[C@H]4c4cc(F)cc(F)c4)CC3)ncc2F)c1=O` [Compound 199, (S)-2-(2-(4-(5-(3,5-difluorophenyl)-4,5-dihydro-1H-pyrazole-1-carbonyl)piperazin-1-yl)-5-fluoropyrimidin-4-yl)-4-ethyl-2,4-dihydro-3H-1,2,4-triazol-3-one], the EC50 lay in the range of 0.1 to 100 nM.

As for `Cc1nn(-c2ccnc(N3CCN(C(=O)N4N=CC[C@H]4c4cc(F)cc(C#N)c4)CC3)n2)c(C)c1C#N` [Compound 274, (S)-1-(2-(4-(5-(3-cyano-5-fluorophenyl)-4,5-dihydro-1H-pyrazole-1-carbonyl)piperazin-1-yl)pyrimidin-4-yl)-3,5-dimethyl-1H-pyrazole-4-carbonitrile], the EC50 lay within 0.1 to 100 nM.

With `Cc1cnn(C)c1-c1cc(N2CCN(C(=O)N3N=CCC3c3nccs3)CC2)c(F)cn1` (stereo not shown) [Compound 294, (4-(2-(1,4-dimethyl-1H-pyrazol-5-yl)-5-fluoropyridin-4-yl)piperazin-1-yl)(5-(thiazol-2-yl)-4,5-dihydro-1H-pyrazol-1-yl)methanone], the EC50 lay within 100 to 1000 nM.

`Cc1nnc(-c2nc(N3CCN(C(=O)N4N=CC[C@H]4c4cc(F)cc(C#N)c4)CC3)ncc2F)n1C` [Compound 179, (S)-3-(1-(4-(4-(4,5-dimethyl-4H-1,2,4-triazol-3-yl)-5-fluoropyrimidin-2-yl)piperazine-1-carbonyl)-4,5-dihydro-1H-pyrazol-5-yl)-5-fluorobenzonitrile]: the EC50 was in the range of 0.1 to 100 nM.
